Source: ChEMBL document CHEMBL5150003, “Why All the Fury over Furin?” (J Med Chem, 2022)
Numbered stars: 1 amine (or outer) side, 2 acyl side, 3 side chain; on linkers, the order of the positions; unused ones are H or OH. Square brackets hold non-standard residues; d marks the D form. Peptide text beside a SMILES is read from it. * marks the point of attachment. X2 = CC(C(=O)[*:2])n1cc(C(CCCNC(=N)N)N[*:1])nn1; NH(4-amidinobenzyl) = N=C(N)c1ccc(CN*)cc1; PhAc = O=C(Cc1ccccc1)*; X5 = N=C(N)NC/C=C/CN*

What was measured:
Mus musculus [1] = assay: Antifibrotic activity against bleomycin-induced mouse lung fibrosis model assessed as inhibition of TGF-beta secretion in lung at 30 mg/kg, po administered once daily; format: functional
Furin [2] = target: T1, Furin (Homo sapiens, UniProt P09958); assay: Inhibition of furin in human U2OS cells measured after 24 hrs by fluorescence assay; format: cell-based
Mus musculus [3] = assay: Antifibrotic activity against bleomycin-induced mouse lung fibrosis model assessed as inhibition of hydroxyproline content in lung at 30 mg/kg, po administered once daily; format: functional
Furin [4] = target: T1, Furin; assay: Inhibition of recombinant human furin using Phac-Arg-Val-Arg-Arg-AMC as substrate incubated for 30 mins and measured by microplate reader method
Vero = assay: Protective activity against Escherichia coli O157:H7 Shiga toxin-induced cytotoxicity in monkey Vero cells measured by LDH assay; format: functional, cell-based; conditions: Chlorocebus sabaeus
Mus musculus [5] = assay: Antifibrotic activity against bleomycin-induced mouse lung fibrosis model assessed as inhibition of TGF-beta secretion in lung at 10 mg/kg, ip administered twice daily; format: functional
Mus musculus [6] = assay: Antifibrotic activity against bleomycin-induced mouse lung fibrosis model assessed as inhibition of hydroxyproline content in lung at 10 mg/kg, ip administered twice daily; format: functional
Furin [7] = target: T1, Furin; assay: Inhibition of soluble recombinant human furin using pyroGlu-Arg-Thr-Lys-Arg-AMC as substrate and measured by fluorescence assay
[8] = Inhibition of porcine trypsin using Mes-DArg-Gly-Arg-AMC as substrate and measured by fluorescence assay; parameters: species or system Sus scrofa
Furin [9] = target: T1, Furin; assay: Inhibition of human furin using Pyr-RTKR-AMC as substrate preincubated for 30 mins followed by substrate addition and measured by fluorescence based assay
Furin [10] = target: T1, Furin; assay: Inhibition of human furin expressed in HEK293 cells using pGlu-Arg-Thr-LysArg-AMC as substrate and measured by fluorescence based assay
Furin [11] = target: T1, Furin; assay: Inhibition of furin (unknown origin)
[12] = Stability in mouse plasma assessed as compound remaining measured after 24 hrs; format: ADME, cell-free; conditions: read-out: Stability
[13] = Stability in mouse plasma assessed as half-life; format: ADME, cell-free
Furin [14] = target: T1, Furin; assay: Inhibition of recombinant human furin protease

T1 sequence (P09958 whole entry): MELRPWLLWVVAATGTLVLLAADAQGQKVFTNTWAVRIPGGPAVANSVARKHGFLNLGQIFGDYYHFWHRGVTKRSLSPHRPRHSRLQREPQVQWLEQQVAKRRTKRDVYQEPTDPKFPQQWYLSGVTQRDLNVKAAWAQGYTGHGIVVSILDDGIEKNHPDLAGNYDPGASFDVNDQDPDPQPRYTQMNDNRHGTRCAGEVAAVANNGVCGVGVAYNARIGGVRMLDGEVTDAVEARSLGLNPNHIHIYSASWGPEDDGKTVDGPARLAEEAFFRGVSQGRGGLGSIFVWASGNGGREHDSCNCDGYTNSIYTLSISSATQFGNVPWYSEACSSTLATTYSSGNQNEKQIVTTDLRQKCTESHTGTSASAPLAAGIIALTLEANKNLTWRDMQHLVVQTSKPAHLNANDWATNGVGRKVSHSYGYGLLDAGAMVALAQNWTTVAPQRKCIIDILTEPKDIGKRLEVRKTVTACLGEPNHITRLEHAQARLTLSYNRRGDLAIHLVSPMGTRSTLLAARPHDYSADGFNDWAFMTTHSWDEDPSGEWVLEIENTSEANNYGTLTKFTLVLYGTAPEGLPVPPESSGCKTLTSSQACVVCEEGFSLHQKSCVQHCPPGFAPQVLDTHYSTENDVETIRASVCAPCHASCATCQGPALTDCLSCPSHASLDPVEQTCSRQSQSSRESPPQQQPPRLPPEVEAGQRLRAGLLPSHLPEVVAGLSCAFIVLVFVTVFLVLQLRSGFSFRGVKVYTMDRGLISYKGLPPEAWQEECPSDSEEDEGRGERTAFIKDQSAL

SMILES: CN1CCCN(c2cnc(Oc3cc(CN4CCC(CC(=O)O)CC4)cc(-c4cc(Cl)cc(Cl)c4)n3)cn2)CC1
- inhibition in vivo at 30 mg/kg (Mus musculus [1]): 26%
- pXC50 (Furin [2]): 7.7
- inhibition in vivo at 30 mg/kg (Mus musculus [3]): 21%

SMILES: CC(=O)NCC1CCN(Cc2cc(Oc3ccc(N4CCN(CCS(C)(=O)=O)CC4)nc3)nc(-c3cc(Cl)cc(Cl)c3)c2)CC1
- inhibition in vivo at 30 mg/kg (Mus musculus [1]): 41%
- pXC50 (Furin [2]): 7.6
- inhibition in vivo at 30 mg/kg (Mus musculus [3]): 45%

SMILES: CC(C)(C)[C@H](NC(=O)[C@H](CCCNC(=N)N)NC(=O)Cc1ccc(CNC(=N)N)cc1)C(=O)N[C@@H](CCCONC(=N)N)C(=O)NCc1ccc(C(=N)N)cc1
- Ki (Furin [4]): 13.1 pM

SMILES: CC(=O)N[C@@H](CCCNC(=N)N)C(=O)N[C@@H](C)C(=O)N[C@@H](CCCNC(=N)N)C(=O)N[C@@H](CCCNC(=N)N)C(=O)N[C@@H](CCCNC(=N)N)C(=O)N[C@@H](CCCCN)C(=O)N[C@@H](CCCCN)C(=O)NC/C=C/CNC(=N)N (Ac-RARRRKK-X5)
- IC50 (Vero): 71 µM

SMILES: CC(=O)NCC1CCN(Cc2cc(Oc3cnc(N4CCN(CCC(=O)O)CC4)nc3)nc(-c3cc(Cl)cc(Cl)c3)c2)CC1
- inhibition in vivo at 10 mg/kg (Mus musculus [5]): 86%
- pXC50 (Furin [2]): 8
- inhibition in vivo at 10 mg/kg (Mus musculus [6]): 60%

SMILES: CC(=O)NCC1CCN(Cc2cc(Oc3ccc(N4CCN(CC(=O)O)CC4)nc3)nc(-c3cc(Cl)cc(Cl)c3)c2)CC1
- inhibition in vivo at 10 mg/kg (Mus musculus [5]): 43%
- pXC50 (Furin [2]): 6.9
- inhibition in vivo at 10 mg/kg (Mus musculus [6]): 16%

SMILES: C/C(=N\NC(=N)N)c1ccc(OCCCOc2ccc(/C(C)=N/NC(=N)N)cc2)cc1
- Ki (Furin [7]): 1.43 µM

SMILES: C/C(=N\NC(=N)N)c1ccc(NC(=O)CCCCC(=O)Nc2ccc(/C(C)=N/NC(=N)N)cc2)cc1
- Ki (Furin [7]): 1.21 µM

SMILES: N=C(N)N/N=C/c1cccc(OCCCOc2cccc(/C=N/NC(=N)N)c2)c1
- Ki (Furin [7]): 1.7 µM

SMILES: CC(C)(C)[C@H](NC(=O)[C@H](CCCNC(=N)N)NC(=O)Cc1ccc(CNC(=N)N)cc1)C(=O)N[C@@H](CCCNC(=N)N)C(=O)NCc1ccc(C(=N)N)cc1
- Ki [8]: 0.052 µM

SMILES: CC(=O)N[C@@H](CCCNC(=N)N)C(=O)N[C@H](C(=O)N[C@@H](Cc1ccc(N=C(N)N)cc1)C(=O)NCc1ccc(/C(N)=N/O)cc1)C(C)C
- Ki (Furin [9]): 1.2 µM

SMILES: CC(C)[C@H](NC(=O)[C@H](CCCNC(=N)N)NC(=O)[C@H](CCCNC(=N)N)NC(=O)[C@H](CCCNC(=N)N)NC(=O)Cc1ccccc1)C(=O)N[C@@H](CCCNC(=N)N)C(=O)NCc1ccc(C(=N)N)cc1 (PhAc-RRRVR-{NH(4-amidinobenzyl)})
- Ki (Furin [4]): 13.8 pM

SMILES: CC(C)[C@H](NC(=O)[C@H](CCCNC(=N)N)NC(=O)Cc1cccc(CNC(=N)N)c1)C(=O)N[C@@H](CCCNC(=N)N)C(=O)NCc1ccc(C(=N)N)cc1
- Ki (Furin [10]): 16 pM

SMILES: N=C(N)N/N=C/c1ccc(N2CCN(c3ccc(/C=N/NC(=N)N)cc3)CC2)cc1
- Ki (Furin [7]): 1.54 µM

SMILES: N=C(N)N/N=C/c1ccc(Oc2ccc(Oc3ccc(/C=N/NC(=N)N)cc3)cc2)cc1
- Ki (Furin [7]): 0.74 µM

SMILES: CC(C(=O)N[C@@H](C)C(=O)N[C@@H](CCCNC(=N)N)C(=O)N[C@@H](CCCNC(=N)N)C(=O)N[C@@H](CCCNC(=N)N)C(=O)N[C@@H](CCCCN)C(=O)N[C@@H](CCCCN)C(=O)N[C@@H](CCCNC(=N)N)C(=O)N[C@H](C(N)=O)[C@@H](C)O)n1cc(C(CCCNC(=N)N)NC(=O)[C@@H](N)CCCNC(=N)N)nn1 (some centres not stated) (H-R[X2]ARRRKKRT-NH2)
- Ki (Furin [11]): 0.013 µM
- remaining at 24 h [12]: 20%
- half-life [13]: 1.24 h

SMILES: CC1C(=O)N[C@@H](CCCNC(=N)N)C(=O)N[C@@H](C)C(=O)N[C@@H](CCCNC(=N)N)C(=O)N[C@@H](CCCNC(=N)N)C(=O)N[C@@H](CCCNC(=N)N)C(=O)N[C@H](C(=O)N[C@@H](CCCCN)C(=O)N[C@@H](CCCNC(=N)N)C(=O)N[C@H](C(N)=O)[C@@H](C)O)CCCCNC(CCCNC(=N)N)c2cn1nn2 (some centres not stated)
- Ki (Furin [11]): 0.0167 µM
- remaining at 24 h [12]: 28%
- half-life [13]: 0.7 h

SMILES: CC(=O)N[C@@H](CCCNC(=N)N)C(=O)N[C@@H](C)C(=O)N[C@@H](CCCNC(=N)N)C(=O)N[C@@H](CCCNC(=N)N)C(=O)N[C@@H](CCCNC(=N)N)C(=O)N[C@@H](CCCCN)C(=O)N[C@@H](CCCCN)C(=O)NCc1ccc(C(=N)N)cc1 (Ac-RARRRKK-{NH(4-amidinobenzyl)})
- Ki (Furin [11]): 0.0038 µM
- half-life [13]: 9.1 h
- IC50 (Vero): > 1000 µM

SMILES: CC(=O)N[C@@H](CCCNC(=N)N)C(=O)N[C@@H](C)C(=O)N[C@@H](CCCNC(=N)N)C(=O)N[C@@H](CCCNC(=N)N)C(=O)N[C@@H](CCCNC(=N)N)C(=O)N[C@@H](CCCCN)C(=O)N[C@@H](CCCCN)C(=O)N[C@@H](CCCNC(=N)N)C(=O)N[C@H](C(N)=O)[C@@H](C)O
- Ki (Furin [11]): 0.019 µM
- Ki (Furin [14]): 0.019 µM
- remaining at 24 h [12]: 5%
- half-life [13]: 1.7 h
- IC50 (Vero): > 1000 µM
